We go through 4 compounds from US8765173B2, “Drug delivery system for administration of a water soluble, cationic and amphiphilic pharmaceutically active substance” (Ardenia Investments, Ltd., priority 2007, dated 2014).

Converted amounts (≈) assume the structure as drawn. Counter-ions that a name gives are not always drawn.

The conditions of data set [1]: stated in Example 1 without method; cited from earlier work.
Data set [2] is described as follows: Solubility in water by UV method. Particulars: thermodynamic from solid.
A further data set in a line: physchem. To be noted: water, thermodynamic from solid.

Regarding `COc1cccc2c1C(=O)c1c(O)c3c(c(O)c1C2=O)C[C@@](O)(C(=O)CO)C[C@@H]3O[C@H]1C[C@H](N)[C@H](O)[C@H](C)O1` [doxorubicin hydrochloride], in data set [1], the “soluble in water in an amount of” value was “more than 25 mg/ml”.
As for `COc1cccc2c1C(=O)c1c(O)c3c(c(O)c1C2=O)C[C@@](O)(C(=O)CO)C[C@@H]3O[C@H]1C[C@H](N)[C@H](O)[C@H](C)O1` [doxorubicin in amine form, doxorubicin], the concentration in solution in data set [2] (solubility) was 15 µg/mL (≈ 27.6 µM).
Compound `O=C1c2c(O)ccc(O)c2C(=O)c2c(NCCNCCO)ccc(NCCNCCO)c21` [mitoxantrone in amine form, mitoxantrone] displayed a solubility in “physchem” of 30 µg/mL (≈ 67.5 µM).
`CC[C@@]1(O)C(=O)OCc2c1cc1n(c2=O)Cc2cc3c(CN(C)C)c(O)ccc3nc2-1` [topotecan in amine form, topotecan] showed a solubility in “physchem” of 90 µg/mL (≈ 214 µM). Against the preceding compound, the solubility is about 3-fold higher.

For orientation: solubility means how much of the substance goes into solution per volume.
